Where two headings read alike, the source gives them in different places.
Tests used:
[1] = test system: panel of cell lines, including the HCT116 p53 isogenic pair; parameters: method as in PMID 28062704; details: panel of cell lines incl. HCT116 p53 isogenic pair; cited from earlier work
p53 mutant CLL cells = test system: p53 mutant CLL cells; parameters: method as in PMID 26312880; details: cited from earlier work
[2] = test system: 12 ovarian cancer cell lines; assay: Colony formation assay, panel of 12 other ovarian cancer cell lines (mean)
Experimental: NIH-OVCAR3 cells were exposed to (A) VE-821 for 48 h, (B) carboplatin for 24 h or (C) rucaparib for 24 h. Media was replaced with drug free media for 21 days to allow colony formation. Data are the mean and standard deviation of at least three independent experiments. […] […] Data are pooled from 3 independent experiments per cell line.
(§1) Cells were plated into 6-well tissue culture dishes at low densities and allowed to adhere for 24 h before being treated for 24 h with carboplatin (0–50 µM) or rucaparib (0–30 µM), or 48 h with VE-821 (0–30 µM). DMSO concentration was kept constant at 0.5%, including no-drug control, for drugs dissolved in DMSO. Following treatment, the medium was removed and replaced with fresh drug-free medium to allow colony formation. The cells were fixed in methanol: acetic acid (3:1 v/v) and stained with 0.4% crystal violet. Colonies were counted and the % survival for each treatment was calculated from the relative plating efficiency of treated versus untreated controls.

NIH-OVCAR3 cells [3] = assay: cells
Experimental: (§2) NIH-OVCAR3 cells were exposed to (A) VE-821 for 48 h, (B) carboplatin for 24 h or (C) rucaparib for 24 h. Media was replaced with drug free media for 21 days to allow colony formation. Data are the mean and standard deviation of at least three independent experiments. (D) Sensitivity of an additional 12 ovarian cancer cell lines to the three drugs was calculated in the same way and LC50 values were calculated. […] Data are pooled from 3 independent experiments per cell line.
as §1

[4] = test system: BRCA1 mutant HRR defective (HRD) cell lines (COV362 and UWB1.289); assay: Colony formation assay, HRR defective cell lines
Experimental: as §2, §1

[5] = test system: HRR competent (HRC) cell lines; assay: Colony formation assay, HRR competent cell lines
Experimental: as §2, §1

[6] = test system: M059J and M059J-Fus1 cells; parameters: method as in PMID 22576130; details: cited from earlier work
p53 = assay type: cell-based, human
NIH-OVCAR3 cells [7] = assay: Immunofluorescence based γH2AX-RAD51 foci assay; assay type: cell-based, human; details: 10 µM rucaparib, 48 h vs 0.5% DMSO
Experimental: Figure 4 Assessment of HRR and NHEJ in the NIH-OVCAR3 cells. (A) Cells were exposed to 0.5% DMSO (control) or 10 µM rucaparib for 48 h before being fixed and stained as per the protocol outlined in the methods. After imaging, the number of γH2AX and RAD51 foci per nucleus was calculated using ImageJ software, data points represent number of foci in an individual nucleus. The fold change in number of foci per nuclei between control and 10 µM rucaparib was then calculated. (B) Cells were co-transfected with pDRGFP and pCBASceI plasmids and analysed for the presence of GFP-positive cells 48 h post-transfection. % HRR activity was calculated by normalizing to the untransfected control. […] (C) Cells were co-transfected with pimEJ5GFP and pCBASceI plasmids and analysed for the presence of GFP-positive cells 48 h post-transfection. % NHEJ activity was calculated by normalizing to the untransfected control. […] [* p < 0.05; ** p < 0.005; **** p < 0.0001 (unpaired t-test)].
HRR was assessed by immunofluorescence. Cells were treated for 48 h with 10 μM rucaparib with 0.5% DMSO concentration for the untreated and treated cells. […] The number of γH2AX and RAD51 foci in each cell was quantified using ImageJ software and data was plotted using GraphPad Prism (GraphPad, San Diego, CA, USA).

[8] = test system: HCT116 p53 isogenic cell line pair; parameters: method as in PMID 30127241; details: cited from earlier work
ATR [9] = target: T1, ATR (Homo sapiens, UniProt Q13535); assay: ATR inhibition by western blot of pCHK1Ser345 after 4NQO, NIH-OVCAR3; assay type: cell-based
T1 construct: NIH-OVCAR3 cells and 9 other ovarian cancer cell lines were exposed to 4NQO ± VE-821 as indicated for 1 hr before western blotting; endogenous in cells
T1 sequence (Q13535 whole entry): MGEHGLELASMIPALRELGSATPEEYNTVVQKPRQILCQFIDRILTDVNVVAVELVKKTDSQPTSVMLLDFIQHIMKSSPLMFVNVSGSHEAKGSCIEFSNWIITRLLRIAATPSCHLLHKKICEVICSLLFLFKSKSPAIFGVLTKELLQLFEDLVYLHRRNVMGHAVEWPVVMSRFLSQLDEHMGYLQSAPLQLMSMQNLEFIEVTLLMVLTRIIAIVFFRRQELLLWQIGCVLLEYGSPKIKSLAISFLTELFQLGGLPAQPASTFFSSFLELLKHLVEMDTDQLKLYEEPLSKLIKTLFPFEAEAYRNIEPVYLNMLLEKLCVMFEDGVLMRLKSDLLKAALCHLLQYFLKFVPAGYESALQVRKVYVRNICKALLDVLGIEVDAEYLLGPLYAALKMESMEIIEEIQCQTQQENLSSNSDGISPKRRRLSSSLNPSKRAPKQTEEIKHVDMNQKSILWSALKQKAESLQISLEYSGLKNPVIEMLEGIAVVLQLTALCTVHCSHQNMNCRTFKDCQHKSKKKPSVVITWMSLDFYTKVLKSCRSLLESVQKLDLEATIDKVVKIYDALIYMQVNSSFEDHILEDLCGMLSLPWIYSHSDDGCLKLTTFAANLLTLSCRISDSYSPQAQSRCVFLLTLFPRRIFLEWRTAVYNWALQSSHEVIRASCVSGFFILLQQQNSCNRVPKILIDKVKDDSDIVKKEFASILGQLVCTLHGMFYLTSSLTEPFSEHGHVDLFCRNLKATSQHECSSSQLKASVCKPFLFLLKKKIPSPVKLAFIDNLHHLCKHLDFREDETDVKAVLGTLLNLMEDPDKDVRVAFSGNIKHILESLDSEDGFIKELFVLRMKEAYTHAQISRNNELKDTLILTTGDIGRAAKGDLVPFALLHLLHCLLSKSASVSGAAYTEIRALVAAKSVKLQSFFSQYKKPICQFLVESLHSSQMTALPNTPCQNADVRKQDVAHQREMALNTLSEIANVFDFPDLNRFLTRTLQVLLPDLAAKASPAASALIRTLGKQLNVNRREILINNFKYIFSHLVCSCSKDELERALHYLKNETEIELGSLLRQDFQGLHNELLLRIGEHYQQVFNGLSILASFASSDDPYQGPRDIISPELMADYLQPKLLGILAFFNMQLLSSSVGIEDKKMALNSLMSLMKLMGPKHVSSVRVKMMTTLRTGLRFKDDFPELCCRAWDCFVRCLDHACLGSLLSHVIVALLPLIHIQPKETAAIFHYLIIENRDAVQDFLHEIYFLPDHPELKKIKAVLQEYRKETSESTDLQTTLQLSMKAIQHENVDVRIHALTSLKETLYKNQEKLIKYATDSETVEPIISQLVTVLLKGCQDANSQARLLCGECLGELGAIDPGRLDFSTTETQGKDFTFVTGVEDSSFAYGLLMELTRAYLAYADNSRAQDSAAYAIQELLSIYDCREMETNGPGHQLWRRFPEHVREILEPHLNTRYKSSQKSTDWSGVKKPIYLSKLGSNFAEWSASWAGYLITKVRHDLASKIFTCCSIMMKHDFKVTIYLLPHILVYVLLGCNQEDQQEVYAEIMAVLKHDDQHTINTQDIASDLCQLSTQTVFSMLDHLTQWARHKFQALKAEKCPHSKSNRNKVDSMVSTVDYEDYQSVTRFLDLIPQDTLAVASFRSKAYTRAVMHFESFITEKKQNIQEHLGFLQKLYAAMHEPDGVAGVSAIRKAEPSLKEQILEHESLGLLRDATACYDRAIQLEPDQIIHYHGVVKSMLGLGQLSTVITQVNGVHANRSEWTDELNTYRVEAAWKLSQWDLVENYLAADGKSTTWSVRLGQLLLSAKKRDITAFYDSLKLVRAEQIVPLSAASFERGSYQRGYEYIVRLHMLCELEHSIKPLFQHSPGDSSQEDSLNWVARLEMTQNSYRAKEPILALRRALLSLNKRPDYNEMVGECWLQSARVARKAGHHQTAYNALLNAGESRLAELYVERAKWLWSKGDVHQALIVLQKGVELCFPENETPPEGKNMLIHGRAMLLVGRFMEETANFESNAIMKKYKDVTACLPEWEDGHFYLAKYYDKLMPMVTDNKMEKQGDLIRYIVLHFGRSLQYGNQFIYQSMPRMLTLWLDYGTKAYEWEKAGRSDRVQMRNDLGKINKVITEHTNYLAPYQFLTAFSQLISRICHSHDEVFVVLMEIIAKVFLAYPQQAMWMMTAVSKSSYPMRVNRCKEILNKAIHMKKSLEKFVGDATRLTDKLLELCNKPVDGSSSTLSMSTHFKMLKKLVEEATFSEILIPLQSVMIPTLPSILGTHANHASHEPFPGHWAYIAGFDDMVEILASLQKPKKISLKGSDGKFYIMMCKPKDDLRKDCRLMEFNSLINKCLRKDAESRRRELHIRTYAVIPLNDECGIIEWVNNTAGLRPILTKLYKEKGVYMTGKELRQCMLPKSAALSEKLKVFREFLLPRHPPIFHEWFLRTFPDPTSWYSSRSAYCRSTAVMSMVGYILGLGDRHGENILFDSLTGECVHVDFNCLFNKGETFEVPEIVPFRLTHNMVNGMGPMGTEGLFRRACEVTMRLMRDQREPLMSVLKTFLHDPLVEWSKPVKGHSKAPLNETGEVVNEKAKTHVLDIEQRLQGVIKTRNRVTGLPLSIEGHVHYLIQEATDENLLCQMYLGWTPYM
T1 sequence (Q8WXE1 whole entry partner): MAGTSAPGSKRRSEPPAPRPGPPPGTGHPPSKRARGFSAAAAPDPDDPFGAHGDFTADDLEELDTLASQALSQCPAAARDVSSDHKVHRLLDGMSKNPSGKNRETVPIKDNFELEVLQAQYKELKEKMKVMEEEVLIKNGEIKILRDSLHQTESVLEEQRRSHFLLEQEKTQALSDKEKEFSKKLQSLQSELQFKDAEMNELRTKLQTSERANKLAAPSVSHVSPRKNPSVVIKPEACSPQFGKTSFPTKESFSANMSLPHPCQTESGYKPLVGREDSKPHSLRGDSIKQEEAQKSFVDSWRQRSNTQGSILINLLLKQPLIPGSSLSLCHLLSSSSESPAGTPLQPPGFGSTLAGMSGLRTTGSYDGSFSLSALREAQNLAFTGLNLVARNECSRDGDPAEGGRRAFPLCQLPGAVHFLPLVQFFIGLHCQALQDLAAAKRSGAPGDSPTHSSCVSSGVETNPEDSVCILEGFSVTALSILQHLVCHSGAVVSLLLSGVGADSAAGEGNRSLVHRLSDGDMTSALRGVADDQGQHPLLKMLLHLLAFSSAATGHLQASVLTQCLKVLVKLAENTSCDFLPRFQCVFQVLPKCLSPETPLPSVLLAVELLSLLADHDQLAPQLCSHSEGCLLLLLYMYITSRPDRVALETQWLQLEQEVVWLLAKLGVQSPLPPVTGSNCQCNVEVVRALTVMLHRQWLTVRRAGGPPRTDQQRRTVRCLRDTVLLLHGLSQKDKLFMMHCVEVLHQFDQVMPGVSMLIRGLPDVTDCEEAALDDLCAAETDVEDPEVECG
Experimental: (§3) (A) NIH-OVCAR3 cells and 9 other ovarian cancer cell lines were exposed to 4NQO ± VE-821 as indicated for 1 hr before western blotting. Chemiluminescence was quantified using Syngene software and expression of pCHK1Ser345 was normalised to vinculin expression. Western blot image is from a single representative experiment with pooled data from 3 independent experiments per cell line used to calculate the mean VE-821 IC50 and percentage inhibition at 1 µM VE-821. (B) Bar chart represents log-transformed read counts obtained from RNA-Seq data for each gene normalized to ACTB mRNA expression for NIH-OVCAR3 cells (black bars) and the mean mRNA expression of each gene across 12 cell lines (white bars) where each black dot represents one cell line. (C) Bar chart represents protein expression normalised to Ponceau-s staining calculated using ImageJ software in NIH-OVCAR3 cells (black bars) and the mean protein expression of each gene across 12 cell lines (white bars) where each black dot represents one cell line. Data are from a single experimental repeat. [PRKDC: DNA-PKcs, XRCC5: Ku80, XRCC6: Ku70]. […] Western blot of baseline protein expression in panel of ovarian cancer cell lines can be found at Figure S5.

ATR [10] = target: T1, ATR; assay: ATR inhibition by western blot of pCHK1Ser345 after 4NQO, 9 other ovarian cancer cell lines; assay type: cell-based; details: mean of 9 ovarian cell lines
Experimental: as §3

[11] = ratio of LC50, colony formation
[12] = Homo sapiens, 24 h, read-out: Rucaparib LC50 ± SD
[13] = Homo sapiens, 48 h, read-out: VE-821 LC50 ± SD

For `C[C@@H]1COCCN1c1cc(C2([S@](C)(=N)=O)CC2)nc(-c2cc[nH]c3nccc2-3)n1` [AZD6738], the “Sensitivity in relation to p53 status” value [1] is listed as “independent of p53 status” and the “Cytotoxicity in relation to p53 status” value (p53 mutant CLL cells) is listed as “selectively cytotoxic towards p53 mutant CLL cells”.

With `N.N.O=C([O-])C1(C(=O)[O-])CCC1.[Pt+2]` [Carboplatin] the CC50 ([2]; read-out: Carboplatin LC50 ± SD, mean of 12 ovarian cell lines, 24 h exposure, colony formation) was 6120 ± 6180 nM, the “Fold more sensitive, NIH-OVCAR3 compared to the 12 ovarian cancer cell lines” value (NIH-OVCAR3 cells [3]; [11]) was 5 fold and the CC50 (NIH-OVCAR3 cells [3]; read-out: Carboplatin LC50 ± SD, NIH-OVCAR3, 24 h exposure, then drug free media 21 days, colony formation) was 1290 ± 340 nM. The CC50 ([4]; read-out: Carboplatin LC50 ± SD, HRD cell lines, 24 h exposure, colony formation) was 1520 ± 940 nM and the CC50 ([5]; read-out: Carboplatin LC50 ± SD, HRC cell lines, 24 h exposure, colony formation) was 7020 ± 7090 nM.

In the case of `COc1cccc2c1C(=O)c1c(O)c3c(c(O)c1C2=O)C[C@@](O)(C(=O)CO)C[C@@H]3O[C@H]1C[C@H](N)[C@H](O)[C@H](C)O1` [Doxorubicin, doxorubicin], the CC50 ([2]; Homo sapiens, 24 h, read-out: Doxorubicin LC50 ± SD) is listed as 44.5 ± 15.5 nM, the “mean percentage cell survival at 100 nM” value ([2]; mean of the 12 ovarian cancer cell lines, 100 nM doxorubicin) is listed as ~ 12% and the “percentage cell survival at 100 nM” value ([6]; M059J-Fus1 cells, 100 nM doxorubicin) is listed as ~ 30%. The “Fold more sensitive, NHEJ-deficient M059J vs NHEJ-proficient M059J-Fus1 cells” value [6] was 20 fold, the “Fold higher percentage cell survival, NIH-OVCAR3 vs mean of the 12 ovarian cancer cell lines” value (NIH-OVCAR3 cells [3]; 100 nM doxorubicin) was 1.4 fold and the CC50 (NIH-OVCAR3 cells [3]; Homo sapiens, OVCAR-3, read-out: Doxorubicin LC50 ± SD) was 55 ± 1.97 nM. For the same compound, the “percentage cell survival at 100 nM” value (NIH-OVCAR3 cells [3]; NIH-OVCAR3, 100 nM doxorubicin) was ~ 17%.

For `Nc1ccn([C@@H]2O[C@H](CO)[C@@H](O)C2(F)F)c(=O)n1` [Gemcitabine, gemcitabine], the Gemcitabine LC50 ± SD [2] was 28.7 nM and the CC50 (NIH-OVCAR3 cells [3]; Homo sapiens, OVCAR-3, read-out: Gemcitabine LC50 ± SD) was 41.5 ± 1.2 nM.

For `COc1ccc(C2=N[C@@H](c3ccc(Cl)cc3)[C@@H](c3ccc(Cl)cc3)N2C(=O)N2CCNC(=O)C2)c(OC(C)C)c1` [Nutlin-3], the “Induction of MDM2 and p21 (indicators of p53 activation)” value (p53) was “no induction of either MDM2 or p21”.

In the case of `CC(=O)O[C@H]1C(=O)[C@@]2(C)[C@H]([C@H](OC(=O)c3ccccc3)[C@]3(O)C[C@H](OC(=O)[C@H](O)[C@@H](NC(=O)c4ccccc4)c4ccccc4)C(C)=C1C3(C)C)[C@]1(OC(C)=O)CO[C@@H]1C[C@@H]2O` [Paclitaxel, paclitaxel], the CC50 ([2]; Homo sapiens, 24 h, read-out: Paclitaxel LC50 ± SD) is reported as 3.37 ± 2.41 nM and the CC50 (NIH-OVCAR3 cells [3]; Homo sapiens, OVCAR-3, read-out: Paclitaxel LC50 ± SD) is reported as 2.71 ± 0.08 nM.

With `CNCc1ccc(-c2[nH]c3cc(F)cc4c3c2CCNC4=O)cc1` [Rucaparib, rucaparib] the CC50 [2, 12] was 8800 ± 9580 nM, the RAD51 foci formation (NIH-OVCAR3 cells [7]) was “increase in RAD51 foci formation” and the γH2AX foci formation (NIH-OVCAR3 cells [7]) was “induction in γH2AX foci”. The CC50 (NIH-OVCAR3 cells [3]; Homo sapiens, OVCAR-3, read-out: Rucaparib LC50 ± SD) was 410 ± 60 nM, the “Fold more sensitive, NIH-OVCAR3 compared to HRR competent (HRC) cell lines” value (NIH-OVCAR3 cells [3]; [11]) was 26 fold and the “Fold more sensitive, NIH-OVCAR3 compared to the 12 ovarian cancer cell lines” value (NIH-OVCAR3 cells [3]; [11]) was 21 fold. For the same compound, the CC50 [4, 12] was 280 ± 70 nM and the CC50 [5, 12] was 10500 ± 9610 nM.

In the case of `CC[C@@]1(O)C(=O)OCc2c1cc1n(c2=O)Cc2cc3c(CN(C)C)c(O)ccc3nc2-1` [Topotecan, topotecan], the CC50 ([2]; Homo sapiens, 24 h, read-out: Topotecan LC50 ± SD) is reported as 15.6 ± 9.32 nM and the CC50 (NIH-OVCAR3 cells [3]; Homo sapiens, OVCAR-3, read-out: Topotecan LC50 ± SD) is reported as 7.2 ± 0.36 nM.

In the case of `CS(=O)(=O)c1ccc(-c2cnc(N)c(C(=O)Nc3ccccc3)n2)cc1` [VE-821], the CC50 [2, 13] is given as 1580 ± 1120 nM, the “Difference in sensitivity to single agent between p53 isogenic cells” value [8] is given as “no difference in sensitivity” and the CC50 (NIH-OVCAR3 cells [3]; Homo sapiens, OVCAR-3, read-out: VE-821 LC50 ± SD) is given as 17900 ± 4560 nM. The “Fold more resistant, NIH-OVCAR3 compared to panel of 12 ovarian cancer cell lines” value (NIH-OVCAR3 cells [3]; [11]) was 11 fold, the IC50 (ATR [9]; 4NQO ± VE-821 for 1 hr, western blot, normalised to vinculin, read-out: VE-821 IC50 ± SD (ATR inhibition, pCHK1Ser345)) was 310 ± 270 nM and the inhibition at 1 µM (ATR [9]; OVCAR-3, 1 μM VE-821, 4NQO, 1 hr, pCHK1Ser345, read-out: ATR Inhibition at 1 μM VE-821 ± SD) was 81 ± 5.29%. It also gave a CC50 [4, 13] of 1010 ± 500 nM, a CC50 [5, 13] of 1680 ± 1190 nM and an inhibition at 1 µM (ATR [10]; 1 μM VE-821, 4NQO, 1 hr, pCHK1Ser345, read-out: ATR Inhibition at 1 μM VE-821 ± SD) of 78.1 ± 13.4%. The IC50 (ATR [10]; 4NQO ± VE-821 for 1 hr, western blot, read-out: VE-821 IC50 ± SD (ATR inhibition, pCHK1Ser345)) was 380 ± 200 nM.
